The ED50 is the dose that gives a 50% effect, or the effect in half of the subjects.

SMILES strings stand for the structures.

From US5925631A, “Alkylated styrenes as prodrugs to COX-2 inhibitors” (Merck & Co., Inc., priority 1998, dated 1999) come the findings set out here.

The test system of this test is Rat Paw Edema. Put plainly: Rat paw edema assay (carrageenan). It is filed as in vivo, rat (Male Sprague-Dawley). As to conditions: po, p.o. 1 h before subplantar carrageenan (500 μg per paw), paw volume at 3 h, read-out: Rat Paw Edema ED50, dose of prodrug required to reduce edema formation by 50% as compared to vehicle control. Here is the method:
Male Sprague-Dawley rats (150-200 g) are fasted overnight and are given, p0, either vehicle (1% methocel or 5% Tween 80) or a test compound. One hr later, a line is drawn using a permanent marker at the level above the ankle in one hind paw to define the area of the paw to be monitored. The paw volume (V0) is measured using a plethysmometer (Ugo-Basile, Italy) based on the principle of water displacement. The animals are then injected subplantarly with 50 μl of 1% carrageenan solution in saline (FMC Corp, Me.) into the paw using an insulin syringe with a 25-gauge needle (i.e. 500 μg carrageenan per paw). Three hr later, the paw volume (V3) is measured and the increases in paw volume (V3 - VO) are calculated. The animals are sacrificed by CO2 asphyxiation and the absence or presence of stomach lesions scored. Data is compared with the vehicle-control values and percent inhibition calculated. All treatment groups are coded to eliminate observer bias.
Compounds of the present invention are prodrugs of inhibitors of COX-2 and are thereby useful in the treatment of COX-2 mediated diseases as enumerated above. The extent of conversion of these compounds to the active COX-2 inhibitors may be seen in the representative results shown in Table III along with their antiinflammatory activity. The plasma levels indicated are the maximum rat plasma concentrations of the active COX-2 inhibitor observed when the rat was treated with a 20 mg/kg oral dose of the indicated prodrug. The ED50 values in the rat paw edema assay represent the dose of prodrug required to reduce edema formation by 50% as compared to the vehicle control.
For orientation: In the carrageenan paw model, swelling and tenderness develop within hours.
Take `COC(=O)/C(=C(/c1ccc(S(C)(=O)=O)cc1)C(C)(C)OC)c1cccc(F)c1` [Example 6, Methyl 2-(3-fluorophenyl)-4-methoxy-4-methyl-3-(4-(methylsulfonyl)phenyl)-2-(Z)-pentenoate]: the 50% effective dose (ED50) is 2.1 mg/kg.
Turning to `CC(C)(O)/C(=C(\CO)c1cccc(F)c1)c1ccc(S(C)(=O)=O)cc1` [Example 1, 2-(3-Fluorophenyl)-4-methyl-3-(4-(methylsulfonyl)-phenyl)-2-(Z)-penten-1,4-diol], the ED50 was 10 mg/kg.
The figure for `COC(C)(C)/C(=C(\C(=O)N(C)C)c1cccc(F)c1)c1ccc(S(C)(=O)=O)cc1` [Example 4, N,N-Dimethyl-2-(3-fluorophenyl)-4-methoxy-4-methyl-3-(4-(methylsulfonyl)phenyl)-2-(Z)-pentenamide] is 1.6 mg/kg.
